{"source": "ChEMBL document CHEMBL1135457", "about": "(J Med Chem, 2002)", "key": {"[1]": {"target": "T1, Progesterone receptor (Homo sapiens) (UniProt P06401)", "T1 sequence (whole entry)": "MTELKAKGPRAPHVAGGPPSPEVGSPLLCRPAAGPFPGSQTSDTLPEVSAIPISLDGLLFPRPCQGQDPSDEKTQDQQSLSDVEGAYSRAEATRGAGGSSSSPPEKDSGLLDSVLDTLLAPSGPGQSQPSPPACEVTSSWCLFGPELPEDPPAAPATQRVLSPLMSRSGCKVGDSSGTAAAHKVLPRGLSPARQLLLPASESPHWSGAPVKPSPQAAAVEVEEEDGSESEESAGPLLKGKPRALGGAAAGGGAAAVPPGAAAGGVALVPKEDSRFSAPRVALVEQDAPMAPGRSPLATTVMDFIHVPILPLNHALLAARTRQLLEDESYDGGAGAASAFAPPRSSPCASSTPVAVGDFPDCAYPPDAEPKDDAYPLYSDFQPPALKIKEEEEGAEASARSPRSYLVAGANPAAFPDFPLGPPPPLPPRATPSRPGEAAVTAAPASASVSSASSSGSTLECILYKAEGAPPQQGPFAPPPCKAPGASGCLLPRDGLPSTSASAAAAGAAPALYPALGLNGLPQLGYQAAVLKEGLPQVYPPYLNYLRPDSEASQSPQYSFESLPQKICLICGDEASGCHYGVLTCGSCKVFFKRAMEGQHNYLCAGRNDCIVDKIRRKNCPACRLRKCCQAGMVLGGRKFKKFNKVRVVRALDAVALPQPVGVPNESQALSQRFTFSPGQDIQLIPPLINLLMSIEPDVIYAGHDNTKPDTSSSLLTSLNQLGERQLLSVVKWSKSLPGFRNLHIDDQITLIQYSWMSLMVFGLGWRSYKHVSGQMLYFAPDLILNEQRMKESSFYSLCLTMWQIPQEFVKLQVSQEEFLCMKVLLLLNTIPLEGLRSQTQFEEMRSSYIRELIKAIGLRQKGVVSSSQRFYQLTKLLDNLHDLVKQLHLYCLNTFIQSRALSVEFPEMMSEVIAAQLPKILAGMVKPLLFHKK", "test": "Displacement of 10 nM [3H]dexamethasone from human Progesterone receptor, percent inhibition at 10 uM"}, "Estrogen receptor beta": {"target": "Estrogen receptor beta (Homo sapiens, UniProt Q92731)", "sequence (Q92731 whole entry)": "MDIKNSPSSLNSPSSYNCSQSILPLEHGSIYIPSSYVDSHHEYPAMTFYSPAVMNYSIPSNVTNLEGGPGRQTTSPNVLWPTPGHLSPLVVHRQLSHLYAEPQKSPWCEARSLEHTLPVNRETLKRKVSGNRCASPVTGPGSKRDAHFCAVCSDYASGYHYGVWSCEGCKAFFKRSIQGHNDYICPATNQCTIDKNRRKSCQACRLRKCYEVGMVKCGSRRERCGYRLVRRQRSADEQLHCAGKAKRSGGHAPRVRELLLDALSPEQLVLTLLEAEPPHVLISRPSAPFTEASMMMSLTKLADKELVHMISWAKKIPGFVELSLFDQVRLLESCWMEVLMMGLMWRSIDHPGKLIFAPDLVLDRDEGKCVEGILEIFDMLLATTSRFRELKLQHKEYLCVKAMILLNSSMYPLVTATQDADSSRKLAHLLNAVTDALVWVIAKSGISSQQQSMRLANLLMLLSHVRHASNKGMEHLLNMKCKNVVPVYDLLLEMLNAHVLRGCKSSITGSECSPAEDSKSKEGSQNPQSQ", "test": "Displacement of radioligand from human ER beta"}}, "data": [{"smiles": "CC#C[C@]1(O)CCC2C3CCC4=CC(=O)CC[C@]4(Cc4ccc(C)cc4)C3=CC[C@@]21C", "note": "(some centres not stated)", "values": [{"measurement": "inhibition", "setting": "[1]", "result": 30, "unit": "%"}, {"measurement": "Ki", "setting": "Estrogen receptor beta", "result": "> 10", "unit": "µM"}]}]}
